From PubChem BioAssay (NCI)
Several values for one entry are separate records, joined by “and”; a condition that tells them apart may be missing. Identical values can stand only once.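 Values below derive from 48-hour exposures of cells grown in 96-well plates, with endpoints linearly interpolated between the two concentrations bracketing the appropriate inhibition level. The concentration for 50% growth inhibition is given as GI50. TGI is the concentration that stops growth completely.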

Key:
Assay in all cases: NCI tumour cell line growth inhibition, 48 h
HCT-15 colon = tested on: HCT-15 colon
DU-145 prostate = tested on: DU-145 prostate
SK-OV-3 ovarian = tested on: SK-OV-3 ovarian
SK-MEL-28 melanoma = tested on: SK-MEL-28 melanoma
LOX IMVI melanoma = tested on: LOX IMVI melanoma
OVCAR-5 ovarian = tested on: OVCAR-5 ovarian
HOP-62 NSCLC = tested on: HOP-62 NSCLC
NCI-H226 lung = tested on: NCI-H226 lung
COLO 205 colon = tested on: COLO 205 colon
MOLT-4 leukemia = tested on: MOLT-4 leukemia

| Structure (SMILES) | TGI (HCT-15 colon) [µM] | TGI (DU-145 prostate) [µM] | TGI (SK-OV-3 ovarian) | TGI (SK-MEL-28 melanoma) [µM] | TGI (LOX IMVI melanoma) [µM] | TGI (OVCAR-5 ovarian) | TGI (HOP-62 NSCLC) | TGI (NCI-H226 lung) | TGI (COLO 205 colon) [µM] | TGI (MOLT-4 leukemia) [µM] | GI50 (HCT-15 colon) [µM] | GI50 (DU-145 prostate) [µM] | GI50 (SK-OV-3 ovarian) [µM] | GI50 (LOX IMVI melanoma) [µM] | GI50 (OVCAR-5 ovarian) [µM] | GI50 (HOP-62 NSCLC) [µM] | GI50 (NCI-H226 lung) [µM] | GI50 (MOLT-4 leukemia) [µM] | GI50 (COLO 205 colon) [µM] |
| --- | --- | --- | --- | --- | --- | --- | --- | --- | --- | --- | --- | --- | --- | --- | --- | --- | --- | --- | --- |
| CCCN1C(=O)CN(S(=O)(=O)c2ccc(Cl)cc2)C1=O | > 100 | > 100 | > 100 µM | > 100 | > 100 | > 100 µM | > 100 µM | > 100 µM | > 100 | – | – | – | – | – | – | – | – | – | – |
| O[C@@H]1[C@H](OC2c3ccccc3-c3ccccc32)[C@H](OCc2ccccc2)[C@@H]2OC[C@H]1O2 | > 100 | > 100 | – | > 100 | > 100 | > 100 µM | 80 µM | > 100 µM | > 100 | > 100 | – | – | – | – | – | – | – | – | – |
| CC1(C)CC(=O)C(C(=O)Nc2cccs2)=C(O)C1 | > 100 | – | > 100 µM | > 100 | > 100 | > 100 µM | > 100 µM | 86.8 µM | 33.7 | 88.1 | – | – | – | – | – | – | – | – | – |
| Cc1ccc2c(c1C)CC1(Cc3ccc(C)c(C)c3C1=O)C2=O (centres undefined) | > 100 | > 100 | – | > 100 | > 100 | > 100 µM | – | > 100 µM | > 100 | > 100 | – | – | – | – | – | – | – | – | – |
| COc1ccc(/C=C2\C[C@H]3[C@@H]4CC=C5C[C@@H](O)CC[C@]5(C)[C@H]4CC[C@]3(C)\C2=N\O)cc1 | > 100 | 71.5 | > 100 µM | 72.8 | 33.3 | – | > 100 µM | 94.1 µM | 29 | 34.3 | – | – | – | – | – | – | – | – | – |
| C/C=C(/CCC1NCCc2c1[nH]c1ccccc21)[Si](C)(C)C (centres undefined) | 18.5 | – | > 100 µM and 26.2 µM | – | 15.2 | > 100 µM and 14.6 µM | > 100 µM and 26.7 µM | > 100 µM and 31.4 µM | 3.92 | – | – | – | – | – | – | – | – | – | – |
| COC(=O)/C(=N\N)C(C(=O)C(=O)Nc1cc(Cl)ccc1Cl)c1nc2ccc([N+](=O)[O-])cc2[nH]c1=O (centres undefined) | > 100 | – | > 100 µM | > 100 | > 100 | > 100 µM | > 100 µM | > 100 µM | – | > 100 | – | – | – | – | – | – | – | – | – |
| Cc1cccc(C)c1NC(=O)C(=O)CC(=O)c1sc(Nc2c(C)cccc2C)nc1C | > 100 | > 100 | > 100 µM | – | > 100 | > 100 µM | > 100 µM | > 100 µM | > 100 | > 100 | – | – | – | – | – | – | – | – | – |
| COC(=O)/C=C1\C(CO[Si](C)(C)C(C)(C)C)OC(n2ccc(=O)[nH]c2=O)C1O (centres undefined) | 35.2 | 32.7 | – | 21.4 | 15.5 | 50.9 µM | > 31.1 µM | 19.5 µM | 10.3 | > 31.6 | – | – | – | – | – | – | – | – | – |
| COC(=O)c1ccc(CCC2=CC(=O)C=CC2=O)cc1 | 23 | 33.8 | – | 26 | 24.2 | 33.8 µM | 39.3 µM | 48.3 µM | 26.6 | 4.92 | – | – | – | – | – | – | – | – | – |
| CCOC(=O)c1c(Cl)c2c(n1Cc1ccccc1)-c1oncc1CCC2 | > 100 | > 100 | > 100 µM | – | > 100 | > 100 µM | > 100 µM | > 100 µM | > 100 | > 100 | 3.39 | > 100 | > 100 | 5.26 | > 100 | 4.35 | > 100 | 3.58 | 3.53 |
